The results in this text go back to patent US20230128402A1 (The Trustees of Princeton University, priority 2020, published 2023).

One data set addresses T1, mALDH1a3 (Mus musculus, UniProt Q9JHW9).
T1 construct: made in house; host or cells: E. coli BL21-DE3, pET-Aldh1a3
T1 sequence (Q9JHW9 1-512): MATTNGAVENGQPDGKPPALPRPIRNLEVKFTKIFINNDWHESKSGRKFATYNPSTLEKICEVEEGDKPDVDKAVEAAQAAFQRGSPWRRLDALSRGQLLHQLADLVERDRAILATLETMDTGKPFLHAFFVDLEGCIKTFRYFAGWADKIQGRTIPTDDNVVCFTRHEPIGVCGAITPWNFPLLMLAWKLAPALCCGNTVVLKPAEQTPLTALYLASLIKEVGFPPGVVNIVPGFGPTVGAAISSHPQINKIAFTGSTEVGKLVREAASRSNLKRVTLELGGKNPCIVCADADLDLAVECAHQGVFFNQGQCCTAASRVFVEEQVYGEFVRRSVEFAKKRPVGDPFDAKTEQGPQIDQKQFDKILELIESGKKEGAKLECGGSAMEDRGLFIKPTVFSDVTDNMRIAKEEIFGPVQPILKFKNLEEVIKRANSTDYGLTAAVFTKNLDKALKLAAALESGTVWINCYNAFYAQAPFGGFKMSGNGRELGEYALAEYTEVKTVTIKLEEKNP
Description: Aldh1a3 enzyme inhibition assay, recombinant mALDH1a3. It counts as biochemical. The note with it: resorufin fluorescence, 20° C. An excerpt: (§1) Recombinant enzyme and inhibitor added immediately before assay. Reaction rate measured by resorufin fluorescence.

In data set [1] the test system is ALDH isoforms 1a1, 1a2, 1a3 and 3a1. Format: cell-based, human. As for the experimental part:
The coding sequences of Aldh1a1, Aldh1a2, Aldh1a3 and Aldh3a1 were cloned from cDNA made from pooled human reference RNA samples. Cloned sequences flanked by Age1 and Xho1 restriction sites were inserted into the pLex lentiviral plasmid. Clones were sequenced and compared against NCBI expressed sequence tags ([…]) for accuracy. […]. Viruses were collected and filtered at 0.45 um, then cells were transduced using polybrene (8 μg/mL) for 12 hours, followed by culture with 1 μg/mL puromycin for the duration of experiments. All viral transduction and selection was performed on a cell population-wide basis.
(§2) Cells were counted, centrifuged and resuspended at 1,000,000 cells/mL in ALDEFLUOR™ buffer (Stemcell Technologies). ALDEFLUOR™ substrate (Stemcell Technologies, 1:200) and test compound or 1 mM DEAB were added to cell suspension and incubated at 37° C. for 45 minutes with vortexing every 15 minutes. Cells were centrifuged and resuspended in ALDEFLUOR™ buffer with DAPI at 5 μg/mL. Samples were analyzed with the BD LSR2 flow cytometry platform. Gating was performed using DEAB as a negative control.
ALDH isoforms 1a1, 1a2, 1a3 and 3a1 were expressed in MCF7 or SUM159 cells, which were subsequently used in an ALDEFLUOR™ assay.

Data set [2] deals with T2, ALDH1a3 (Homo sapiens, UniProt P47895).
T2 sequence (P47895 1-512): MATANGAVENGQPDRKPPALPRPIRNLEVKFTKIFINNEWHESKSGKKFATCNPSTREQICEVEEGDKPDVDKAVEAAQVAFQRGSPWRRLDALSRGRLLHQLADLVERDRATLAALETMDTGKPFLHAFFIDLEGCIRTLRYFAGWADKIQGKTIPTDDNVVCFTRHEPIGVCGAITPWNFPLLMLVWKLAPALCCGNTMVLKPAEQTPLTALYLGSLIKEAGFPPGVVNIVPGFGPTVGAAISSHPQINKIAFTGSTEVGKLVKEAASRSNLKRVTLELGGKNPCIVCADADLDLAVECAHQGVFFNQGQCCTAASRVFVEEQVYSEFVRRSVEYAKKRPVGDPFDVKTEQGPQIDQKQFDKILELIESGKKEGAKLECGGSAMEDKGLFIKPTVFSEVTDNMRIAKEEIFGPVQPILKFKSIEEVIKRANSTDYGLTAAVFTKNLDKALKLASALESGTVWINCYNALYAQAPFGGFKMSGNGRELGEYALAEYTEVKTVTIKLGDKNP
Description: Aldh1a3 enzyme inhibition assay, recombinant hALDH1a3. Format: biochemical. Set-up: made in house; host or cells: E. coli BL21-DE3, pET-Aldh1a3. The note with it: resorufin fluorescence, 20° C.
From the text: as §1

Data set [3] has as its target T2, ALDH1a3. Description: ALDEFLUOR assay in SUM159-M1a-Aldh1a3 cells. It counts as cell-based. The arrangement: lentiviral vectors containing either the vector backbone or full-length human Aldh1a3; expressed in transfected cells; host or cells: SUM159-M1a human breast cancer cells, lentiviral pLex vector. The conditions noted are these: for Inhi-bitory Activity at 100 nM (%) / Percent of Cells Positive for ALDEFLUOR ™ at 100 nM: SUM159-M1a-Aldh1a3 cells, compound at 100 nM. As for the experimental part:
as §2
Gating for background fluorescence was performed using 1 millimolar DEAB as a negative control.
The [inh-min]threshold was set at the lower bound of two standard deviations of control samples, while the IC50 threshold was set at 50% of the average of control samples.
An ALDEFLUOR™ assay was also used to assess the relative activity of several compounds described herein against SUM159-M1a-Aldh1a3 cells.

For “2-ethyl-N-(7-fluoro-2-oxo-3,4-dihydro-1H-quinolin-6-yl)benzamide [Compound 4]”, the half-maximal inhibitory concentration (IC50) at mALDH1a3 was 0.1 to 0.25 µM. Also, the “ALDH isoform specificity, ALDEFLUOR-positive cells” value in data set [1] is “specifically inhibits ALDH1a3 at concentrations below 10 μM”. Besides, the IC50 at ALDH1a3 [2] is less than 0.1 µM. In addition, at ALDH1a3 [3], the “Inhi-bitory Activity at 100 nM (%)” value came to 100% and the “Percent of Cells Positive for ALDEFLUOR ™ at 100 nM” value (shortened to “Percent of Cells Positive”) came to 0.03%.
For the compound “3-ethyl-N-(2-oxo-3,4-dihydro-1H-quinolin-6-yl)pyridine-4-carboxamide [Compound 9]”, the IC50 at mALDH1a3 is 0.25 to 1 µM; at ALDH1a3 [2], less than 0.1 µM. In addition, at ALDH1a3 [3], the “Inhi-bitory Activity at 100 nM (%)” value came to 83%. Also, the “Percent of Cells Positive” value at ALDH1a3 [3] is on record as 13%.
Turning to `O=C1CCc2cc(NC(=O)c3ccncc3)c(F)cc2N1` [Compound 2], at mALDH1a3, the IC50 was more than 5 µM. Besides, the IC50 on ALDH1a3 [2] was more than 5 µM. In addition, at ALDH1a3 [3], the “Inhi-bitory Activity at 100 nM (%)” value worked out at 8% and the “Percent of Cells Positive” value was determined as 70%.
As for `CCc1cnccc1CNc1cc2c(cc1F)NC(=O)CC2` [Compound 3], at mALDH1a3, the IC50 lay within 1 to 5 µM. Moreover, the IC50 on ALDH1a3 [2] lay within 1 to 5 µM. Also, on ALDH1a3 [3], the “Inhi-bitory Activity at 100 nM (%)” value is reported as 55% and the “Percent of Cells Positive” value is listed as 34%.
For `CC(C)Cc1cnccc1C(=O)Nc1cc2c(cc1F)NC(=O)CC2` [Compound 7], the IC50 at mALDH1a3 was 0.1 to 0.25 µM; on ALDH1a3 [2], less than 0.1 µM. The “relative potency, ALDEFLUOR activity” value on ALDH1a3 [3] (10 nM, FIG. 6C) is “nearly twice as potent as MBE 1.5”.
Regarding `CCc1cnccc1C(=O)Nc1ccc2c(c1)CCC(=O)N2` [Compound 9, 3-ethyl-N-(2-oxo-3,4-dihydro-1H-quinolin-6-yl)pyridine-4-carboxamide], the “inhibition of ALDH1a3 activity (percentage of ALDEFLUOR-positive cells)” value against ALDH1a3 [3] (100 nM, FIG. 6A) is given as “high-affinity compounds for the inhibition of ALDH1a3 activity”.
For the compound `Cc1ccc(C)c(CNc2ccc3c(c2)CCC(=O)N3)c1` [Compound 10], the IC50 at mALDH1a3 was in the range of 1 to 5 µM. In addition, the concentration for half-maximal inhibition (IC50) at ALDH1a3 [2] lay within 1 to 5 µM. At ALDH1a3 [3], the “Inhi-bitory Activity at 100 nM (%)” value worked out at 45% and the “Percent of Cells Positive” value is given as 42%.
With `Cc1ccc(C(=O)Nc2ccc3c(c2)CCC(=O)N3)cc1C` [Compound 11], the IC50 on mALDH1a3 is more than 5 µM. Besides, on ALDH1a3 [2], the IC50 was more than 5 µM. In addition, on ALDH1a3 [3], the “Inhi-bitory Activity at 100 nM (%)” value is on record as 0.60% and the “Percent of Cells Positive” value worked out at 76%.
For `Cc1ccc(C(=O)Nc2ccc3c(c2)CCC(=O)N3)c(C)c1` [Compound 12], the IC50 on mALDH1a3 and at ALDH1a3 [2] was more than 5 µM each time. In addition, at ALDH1a3 [3], the “Inhi-bitory Activity at 100 nM (%)” value worked out at 3.3%. The “Percent of Cells Positive” value at ALDH1a3 [3] worked out at 74%.
With `Cc1ccccc1C(=O)Nc1ccc2c(c1)CCC(=O)N2` [Compound 13], on mALDH1a3, the half-inhibitory concentration (IC50) lay within 1 to 5 µM. On ALDH1a3 [2], the IC50 is more than 5 µM. For the same compound, on ALDH1a3 [3], the “Inhi-bitory Activity at 100 nM (%)” value was found to be 42% and the “Percent of Cells Positive” value stood at 45%.
Consider `O=C1CCc2cc(NCc3ccccc3)ccc2N1` [Compound 14], for which the IC50 at mALDH1a3 was more than 5 µM. Also, the IC50 at ALDH1a3 [2] was more than 5 µM. In addition, on ALDH1a3 [3], the “Inhi-bitory Activity at 100 nM (%)” value is on record as 11% and the “Percent of Cells Positive” value is recorded as 68%.
As for `Cc1cnccc1C(=O)Nc1cc2c(cc1F)NC(=O)CC2` [Compound 15], at mALDH1a3, the IC50 was more than 5 µM. For the same compound, the IC50 on ALDH1a3 [2] was more than 5 µM. Moreover, on ALDH1a3 [3], the “Inhi-bitory Activity at 100 nM (%)” value turned out to be 18% and the “Percent of Cells Positive” value is 63%.
`Cc1cc(C(=O)Nc2cc3c(cc2F)NC(=O)CC3)ccn1` [Compound 16]: the IC50 on mALDH1a3 and at ALDH1a3 [2] was more than 5 µM in each case. On ALDH1a3 [3], the “Inhi-bitory Activity at 100 nM (%)” value is reported as 29%. Also, at ALDH1a3 [3], the “Percent of Cells Positive” value worked out at 55%.
As for `O=C1CCc2cc(NCc3cc[nH]c3)c(F)cc2N1` [Compound 17], the IC50 at mALDH1a3 is more than 5 µM. For the same compound, the half-inhibitory concentration (IC50) on ALDH1a3 [2] is more than 5 µM. Further, on ALDH1a3 [3], the “Inhi-bitory Activity at 100 nM (%)” value was 2% and the “Percent of Cells Positive” value was determined as 75%.
As to `CC1(C)Cc2cc(Nc3c[nH]c4c(c3=O)CCCC4)ccc2NC1=O` [Compound 135, 3,3-dimethyl-6-[(4-oxo-5,6,7,8-tetrahydro-1H-quinolin-3-yl)amino]-1,4-dihydroquinolin-2-one], the IC50 at mALDH1a3 and on ALDH1a3 [2] was more than 5 µM each time.
As for `CCc1cnccc1C(=O)Nc1ccc2c(c1)C(F)(F)C(=O)N2` [Compound 136], the IC50 on mALDH1a3 is more than 5 µM; at ALDH1a3 [2] it was 1 to 5 µM.
For `CCc1cnccc1C(=O)Nc1ccc2c(c1)C(C)(C)C(=O)N2` [Compound 137], in that order: more than 5 µM and more than 5 µM.

As a reminder, the IC50 is the concentration needed to halve the response being measured.
